In patent US20260325559A1, “Immune Activator Agent” (Oryza Oil & Fat Chemical Co., Ltd., priority 2023, published 2026):

Assays:
[1] = tested on: iMylc® cells (immature myeloid cells induced by differentiation from iPS cells), IL-6 production; assay: IL-6 production activity in iMylc cells (immature dendritic cells); format: cell-based, human; conditions: 20 h, 37 °C, 5% CO2, DMSO 0.1% (v/v), ELISA of culture supernatant, FIG. 1
Procedure: In this experiment, iMylc® cells (immature myeloid cells induced by differentiation from iPS cells) purchased from Mycen Technologies Inc. were used. These cells were cultured and subjected to evaluation tests using the dedicated maintenance medium for iMylc® cells provided by Mycen Technologies Inc.
The iMylc® cells were seeded into 96-well plates (1.0×10^4 cells/well/100 μL). After adding 100 μL/well of medium containing the test substance, the cells were incubated for 20 hours at 37 °C under 5% CO2. The final concentration of DMSO was adjusted to 0.1% (v/v). After incubation, the amount of IL-6 produced in the culture supernatant was measured using a commercially available kit (Human IL-6 ELISA MAX™ Deluxe Set, BioLegend) in accordance with the manufacturer's instructions.

[2] = tested on: CD4-positive helper T cells (human PBMCs cocultured with αMylc® cells); assay: Mixed lymphocyte reaction (MLR), helper T cell proliferation induced by αMylc cells; format: cell-based; conditions: 10 μM; αMylc cells treated 24 h, MLR coculture 7 days; N=3; FIG. 5
Procedure: The test was conducted using a mixed lymphocyte reaction (MLR). In this method, αMylc® cells (derived from human peripheral blood) that had shown IL-6 production-promoting activity were treated with GlcCer[d18:2(4E,8Z)/18:0], GlcCer[t18:1(8Z)/20:0], GlcCer[d18:2(4E,8Z)/20:0], or GlcCer[d18:2(4E,8Z)/26:0] at concentrations of 1 or 10 μM for 24 hours.
During this period, peripheral blood mononuclear cells (PBMCs) isolated from human blood were labeled with the cell membrane-permeable dye carboxyfluorescein diacetate succinimidyl ester (CFDA-SE) by incubation for 7 minutes. After staining, αMylc® cells and PBMCs were mixed at a 1:2 ratio (2×10^4 cells: 4×10^4 cells) and cocultured for 7 days.
Subsequently, the mean fluorescence intensity (MFI) of CD4 (APC-stained; helper T cell marker) and CFDA (cell proliferation indicator) was quantified by flow cytometry (N=3). In the present MLR assay, the activation index was defined as the proliferation rate of helper T cells, and the gating strategy used in this analysis is shown in FIG. 4.

CCCCCCCCCCCCCCCCCCCCC(O)C(=O)N[C@@H](CO)[C@H](O)[C@H](O)CCCCCCCCCCCCCC (stereo partly shown) [Cer[t18:0/22:0]]
IL-6 production [1]: significant activity

CCCCCCCCC/C=C\CC/C=C/[C@@H](O)[C@H](CO[C@@H]1O[C@H](CO)[C@@H](O)[C@H](O)[C@H]1O)NC(=O)[C@H](O)CCCCCCCCCCCCCCCCCCCCCCCC [GlcCer[d18:2(4E,8Z)/26:0]]
IL-6 production [1]: significant activity | T-cell proliferation rate [2]: a significant increase in T-cell proliferation rate

CCCCCCCCC/C=C\CCC[C@@H](O)[C@@H](O)[C@H](CO[C@@H]1OC(CO)[C@@H](O)[C@@H](O)C1O)NC(=O)[C@H](O)CCCCCCCCCCCCCCCCCC (stereo partly shown) [GlcCer[t18:1(8Z)/20:0]]
IL-6 production [1]: significant activity
